Data set [1] deals with Hepatitis B virus. Kind of data set: Antiviral activity against HBV infected in human HepG2(2.2.15) cells assessed as inhibition of viral DNA level after 6 days by Southern blot analysis. Type of data set: functional, cell-based. Particulars: HepG2 2.2.15, 144 h.
Data set [2] is described as follows: Cytotoxicity against human HepG2(2.2.15) cells assessed as reduction in cell viability after 3 days by methylene blue assay. Format: cell-based.
In data set [3] the test system is Hepatitis B virus. Kind of data set: Antiviral activity against HBV infected in human HepG2(2.2.15) cells assessed as inhibition of extracellular viral DNA level. Type of data set: functional, cell-based.
The test system of data set [4] is Hepatitis B virus. Description: Antiviral activity against HBV infected in human HepG2(2.2.15) cells assessed as inhibition of viral RNA level. Type of data set: functional, cell-based.
The test system of data set [5] is Hepatitis B virus. Description: Antiviral activity against HBV infected in human HepG2(2.2.15) cells assessed as inhibition of viral DNA level after 8 days by RT-PCR method. Type of data set: functional, cell-based. To be noted: HepG2 2.2.15, 192 h.
The test system of data set [6] is Hepatitis B virus. Description: Antiviral activity against HBV infected in human HepG2(2.2.15) cells assessed as inhibition of viral DNA level. Type of data set: functional, cell-based.
Data set [7] has as its system Hepatitis B virus. Description: Antiviral activity against HBV infected in human HuS-E/2 cells assessed as inhibition of viral mRNA level at 50 uM treated for 20 hrs measured after 7 days by RT-PCR method relative to control. Format: functional.
Data set [8] has as its system Hepatitis B virus. Kind of data set: Inhibition of HBV C150-Bodipy labeled capsid (1 to 150 residues) C49A/C61A/C107A mutant expressed in Escherichia coli assessed as reduction in NaCl-induced capsid assembly at 10 uM preincubated for 15 mins followed by NaCl addition measured after 1 hr by fluorescence quenching assay relative to control.
For data set [9], the system named is Hepatitis B virus. Kind of data set: Antiviral activity against HBV infected in human HepG2.N9 cells assessed as reduction in HBeAg level measured on day 8 post infection. Type of data set: functional, cell-based. Particulars: 192 h.
Data set [10] relates to Hepatitis B virus. Description: Antiviral activity against HBV infected in human HepAD38 cells. Type of data set: functional, cell-based.
The test system of data set [11] is Hepatitis B virus. Kind of data set: Antiviral activity against HBV infected in human HepaRG cells assessed as reduction in viral infection after 16 hrs.
Data set [12] concerns Hepatitis B virus. Kind of data set: Antiviral activity against HBV infected in human HepG2(2.2.15) cells assessed as reduction in intracellular viral capsid level at antiviral IC50 by immunoblot method. Format: functional. In general terms: A western blot detects proteins with antibodies after separation by electrophoresis.
Data set [13] has as its system Hepatitis B virus. Description: Antiviral activity against HBV infected in human HepG2(2.2.15) cells assessed as inhibition of viral DNA level after 24 hrs by RT-PCR method. Format: functional, cell-based. Particulars: HepG2 2.2.15, 24 h.
Data set [14] can be described thus: Cytotoxicity against human HepG2(2.2.15) cells after 24 hrs by MTS assay. Type of data set: cell-based. (Tetrazolium dyes change colour on reduction, which living cells bring about.)

Some results are limits rather than exact numbers.

A word on the IC50: it is the concentration needed to halve the response being measured. In general, CC50 refers to the concentration giving 50% cytotoxicity. With `O=C1OCc2c1cc1ccc3c(c1c2-c1ccc2c(c1)OCO2)OCO3` [HELIOXANTHIN], in data set [1], the IC50 is 1000 nM. The CC50 at 72 h in data set [2] was found to be 6 µM.

In the case of `O=c1[nH][nH]c(=O)c2c(-c3ccc4c(c3)OCO4)c3c4c(ccc3cc12)OCO4`, in [2], the CC50 at 72 h is 9 µM.

Regarding `CC(=O)Oc1ccccc1C(=O)Nc1ncc([N+](=O)[O-])s1` [NITAZOXANIDE], the IC50 in data set [3] worked out at 120 nM.

With `CC(C)Cc1nc(-c2nccs2)sc1C(=O)NCc1ccc(F)cc1`, the IC50 in [4] was found to be 1330 nM.

Consider `CC(=O)Nc1ccc(-c2cc(C)c(=O)n(Cc3ccc(Cl)cc3)n2)cc1`, for which the IC50 in data set [5] stood at 1500 nM.

Take `CCOC(=O)C1=C(CN2CCOCC2)NC(c2nccs2)=NC1c1ccc(F)cc1Br` (configuration not stated): in data set [6], the IC50 is 12 nM.

Consider `CCOC(=O)c1sc(-c2nc(C)cs2)nc1CC(C)C`, for which the IC50 in data set [5] came out at 140 nM.

One may read the inhibition as the percentage by which the read-out fell short of the control. Turning to `O=C(O[C@@H]1Cc2c(O)cc(O)cc2O[C@@H]1c1cc(O)c(O)c(O)c1)c1cc(O)c(O)c(O)c1` [EPIGALOCATECHIN GALLATE], the inhibition at 50 µM in [7] is above 80%.

Turning to `O=C(Nc1ccc(F)c(Cl)c1)N1CCCN(c2c(Cl)cncc2Cl)CC1`, the inhibition in data set [8] was above 50%.

On to `CCCCC1=NC2(CCCC2)C(=O)N1Cc1ccc(-c2ccccc2-c2nnn[nH]2)cc1` [IRBESARTAN], for which, in data set [9], the IC50 is 3.3 µM.

`CCOC(=O)C1=C(C)NC(c2ncccc2F)=N[C@@H]1c1ccc(F)cc1Cl`: the IC50 in [6] came out at 150 nM.

For the compound `CC(=O)[C@]1(O)CC[C@@]2(O)[C@]1(C)[C@H](OC(=O)/C=C(\C)C(C)C)C[C@@H]1[C@@]3(C)CC[C@H](O)CC3=CC[C@]12O` [CAUDATIN], in data set [6], the IC50 was 40600 nM.

Regarding `COc1ccccc1/C(Br)=C(/NC(=O)c1ccc([N+](=O)[O-])cc1)C(=O)N1CCCCC1`, the IC50 in [10] was 130 nM.

For `O=C(Nc1ncc([N+](=O)[O-])s1)c1ccccc1O` [TIZOXANIDE], in data set [3], the IC50 came to 150 nM.

For `C/C=C/C[C@@H](C)[C@@H](O)[C@H]1C(=O)N[C@@H](CC)C(=O)N(C)CC(=O)N(C)[C@@H](CC(C)C)C(=O)N[C@@H](C(C)C)C(=O)N(C)[C@@H](CC(C)C)C(=O)N[C@@H](C)C(=O)N[C@H](C)C(=O)N(C)[C@@H](CC(C)C)C(=O)N(C)[C@@H](CC(C)C)C(=O)N(C)[C@@H](C(C)C)C(=O)N1C` [CYCLOSPORINE], in [11], the IC50 was below 200 nM.

On to `CCOC(=O)C1=C(C)NC(c2c(F)cc(F)cc2F)=N[C@H]1c1ccc(F)cc1Cl`, for which, in [6], the IC50 stood at 280 nM.

On to `O=C(CNC(=O)c1ccc(F)cc1)Nc1ccc(Cl)nc1Cl`, for which the “inhibition (INH)” value in [12] was determined as 51%. For the same compound, in [13], the IC50 is 880 nM. In data set [14], this compound had a CC50 at 24 h of 144 µM.

Regarding `COC(=O)C1=C(CN2CCOCC2)NC(c2nccs2)=N[C@H]1c1ccc(F)cc1Br`, the IC50 in data set [6] worked out at 11 nM.

Consider `O=c1cc(-c2ccc(O)c(-c3c(O)cc4oc(-c5ccc(O)cc5)cc(=O)c4c3O)c2)oc2cc(O)cc(O)c12` [ROBUSTAFLAVONE], for which the IC50 in data set [6] amounted to 250 nM.

These data come from ChEMBL document CHEMBL4011615, “Past, Current, and Future Developments of Therapeutic Agents for Treatment of Chronic Hepatitis B Virus Infection” (J Med Chem, 2017).
